# Laboratory results: patent US10988478B1, “Pyrazolo[1,5a]pyrimidine derivatives as IRAK4 modulators” (Genentech, Inc., priority 2015, dated 2021)
# Target: human IRAK4 (Homo sapiens (Human), UniProt Q9NWZ3)
# Assay: IRAK4 kinase inhibition, Transcreener fluorescence polarization ADP assay
# Format: biochemical
# Settings: recombinant full-length His6-IRAK4; 125 uM ATP; 90 min; Ki computed using ATP Km 642 uM
# Description: Compounds were assayed for inhibition of human IRAK4 and IRAK1 catalytic activity using recombinant enzyme produced from insect cells. Full-length IRAK4 protein, carrying an N-terminal His6-Tag, was obtained from Life Technologies (Carlsbad, Calif., USA). The IRAK1 construct was produced internally and was comprised of IRAK1 residues Arg194 to Ser712, preceded by an NH2-terminal His6 tag and the coding sequence for glutathione-S-transferase.
# Sequence of human IRAK4 (Q9NWZ3 whole entry): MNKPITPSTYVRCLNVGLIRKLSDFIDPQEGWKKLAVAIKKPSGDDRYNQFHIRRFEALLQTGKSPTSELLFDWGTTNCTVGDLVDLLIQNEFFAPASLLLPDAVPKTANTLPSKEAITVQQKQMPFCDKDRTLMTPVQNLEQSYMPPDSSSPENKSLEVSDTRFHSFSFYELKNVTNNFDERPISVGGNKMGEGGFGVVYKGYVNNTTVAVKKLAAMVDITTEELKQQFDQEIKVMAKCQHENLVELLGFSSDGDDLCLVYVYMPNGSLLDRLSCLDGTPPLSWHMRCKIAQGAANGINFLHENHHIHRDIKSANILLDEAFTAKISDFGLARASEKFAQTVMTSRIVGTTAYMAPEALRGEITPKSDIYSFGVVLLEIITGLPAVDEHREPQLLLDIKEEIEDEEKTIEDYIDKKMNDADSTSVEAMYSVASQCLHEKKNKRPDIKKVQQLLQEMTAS
row,Compound,Ki [nM]
1,"CC1(CO)CCN(c2cc3c(cc2NC(=O)c2cnn4cccnc24)CC(C)(C)O3)C1 (stereo not shown) [Example 18, N-(6-(3-(Hydroxymethyl)-3-methylpyrrolidin-1-yl)-2,2-dimethyl-2,3-dihydrobenzofuran-5-yl)pyrazolo[1,5-a]pyrimidine-3-carboxamide]",21
2,"CC1(C)Cc2cc(NC(=O)c3cnn4cccnc34)c(N3CCOCC3)cc2S1(=O)=O [Example 118, N-[2,2-Dimethyl-6-(morpholin-4-yl)-1,1-dioxo-2,3-dihydro-benzothiophen-5-yl]pyrazolo[1,5-a]pyrimidine-3-carboxamide]",14
3,"CC1(C)Cc2cc(NC(=O)c3cnn4cccnc34)c(N3CCC4(CC3)CN(CC(F)F)C4)cc2O1 [Example 248, N-(6-(2-(2,2-Difluoroethyl)-2,7-diazaspiro[3.5]nonan-7-yl)-2,2-dimethyl-2,3-dihydrobenzofuran-5-yl)pyrazolo[1,5-a]pyrimidine-3-carboxamide]",36
4,"C[C@H](CN1Cc2cc(NC(=O)c3cnn4cccnc34)c(N3CCOCC3)cc2C1=O)N1CCOCC1 [Example 552, N-[6-morpholino-2-[(2R)-2-morpholinopropyl]-1-oxo-isoindolin-5-yl]pyrazolo[1,5-a]pyrimidine-3-carboxamide]",12
5,"COc1cc2c(cc1NC(=O)c1cnn3cccnc13)CC(C)(C)O2 [Example 34, N-(6-Methoxy-2,2-dimethyl-2,3-dihydrobenzofuran-5-yl)pyrazolo[1,5-a]pyrimidine-3-carboxamide]",38
6,"CN1CCC(c2cc3c(cc2NC(=O)c2cnn4cccnc24)CC(C)(C)O3)CC1 [Example 63, N-[2,2-Dimethyl-6-(1-methyl-4-piperidyl)-3H-benzofuran-5-yl]pyrazolo[1,5-a]pyrimidine-3-carboxamide]",390
7,"CNc1cnc2c(C(=O)Nc3cc4c(cc3N3CCOCC3)OC3(CCN(C)CC3)C4)cnn2c1 [Example 380, N-(1′-methyl-6-morpholino-3H-spiro[benzofuran-2,4′-piperidin]-5-yl)-6-(methylamino)pyrazolo[1,5-a]pyrimidine-3-carboxamide]",8.1
8,"C[C@@]1(CO)Cc2cc(NC(=O)c3cnn4cccnc34)c(OC(F)(F)F)cc2O1 [Example 172, (S)—N-(2-(hydroxymethyl)-2-methyl-6-(trifluoromethoxy)-2,3-dihydrobenzofuran-5-yl)pyrazolo[1,5-a]pyrimidine-3-carboxamide]",16
9,"CC1(C)Cc2cc(NC(=O)c3cnn4cccnc34)c(N3CCN(C4CCNC4=O)CC3)cc2O1 (stereo not shown) [Example 467, N-(2,2-dimethyl-6-(4-(2-oxopyrrolidin-3-yl)piperazin-1-yl)-2,3-dihydrobenzofuran-5-yl)pyrazolo[1,5-a]pyrimidine-3-carboxamide]",13
10,"CC1(C)Cc2cc(NC(=O)c3cnn4cccnc34)c(N3CCC(C(F)(F)F)CC3)cc2O1 [Example 218, N-(2,2-dimethyl-6-(4-(trifluoromethyl)piperidin-1-yl)-2,3-dihydrobenzofuran-5-yl)pyrazolo[1,5-a]pyrimidine-3-carboxamide]",17
11,"O=C(Nc1cc2c(cc1N1CCC(CO)CC1)O[C@@](CO)(C(F)(F)F)C2)c1cnn2cccnc12 [Example 317, (S)-N-(2-(hydroxymethyl)-6-(4-(hydroxymethyl)piperidin-1-yl)-2-(trifluoromethyl)-2,3-dihydrobenzofuran-5-yl)pyrazolo[1,5-a]pyrimidine-3-carboxamide]",2.4
12,"CC1(C)Cc2cc(NC(=O)c3cnn4cccnc34)c(N3CCC(F)(CN)CC3)cc2O1 [Example 389, N-[6-[4-(Aminomethyl)-4-fluoro-1-piperidyl]-2,2-dimethyl-3H-benzofuran-5-yl]pyrazolo[1,5-a]pyrimidine-3-carboxamide]",1.3
13,"CC1(C)Cc2cc(NC(=O)c3cnn4cccnc34)c(N3CCC(C(N)=O)C3)cc2O1 (stereo not shown) [Example 236, N-(6-(3-Carbamoylpyrrolidin-1-yl)-2,2-dimethyl-2,3-dihydrobenzofuran-5-yl)pyrazolo[1,5-a]pyrimidine-3-carboxamide]",13
14,"C[C@]1(CO)Cc2cc(NC(=O)c3cnn4cccnc34)c(N3CCC(F)(F)CC3)cc2O1 [Example 122, (R)—N-(6-(4,4-difluoropiperidin-1-yl)-2-(hydroxymethyl)-2-methyl-2,3-dihydrobenzofuran-5-yl)pyrazolo[1,5-a]pyrimidine-3-carboxamide]",6
15,"C[C@@]1(CO)Cc2cc(NC(=O)c3cnn4cc(F)cnc34)c(N3CCN(CC(F)F)CC3)cc2O1 [Example 132, (S)—N-(6-(4-(2,2-Difluoroethyl)piperazin-1-yl)-2-(hydroxymethyl)-2-methyl-2,3-dihydrobenzofuran-5-yl)-6-fluoropyrazolo[1,5-a]pyrimidine-3-carboxamide]",4.8
16,"CN1CCC2(CC1)Cc1cc(NC(=O)c3cnn4cccnc34)c(N3CCOCC3)cc1O2 [Example 152, N-(1′-Methyl-6-morpholino-3H-spiro[benzofuran-2,4′-piperidine]-5-yl)pyrazolo[1,5-a]pyrimidine-3-carboxamide]",12

row,Compound,Ki [nM]
1,"O=C(Nc1cc2c(cc1N1CCOCC1)C(=O)N(C[C@H]1CCC[C@@H]1O)C2)c1cnn2cccnc12 (stereo in doubt) [Example 550, N-[2-[[(1R,2S)-2-hydroxycyclopentyl]methyl]-6-morpholino-1-oxo-isoindolin-5-yl]pyrazolo[1,5-a]pyrimidine-3-carboxamide]",2.1
2,"C[C@@]1(O)COc2cc(N3CCC(n4ccnc4)CC3)c(NC(=O)c3cnn4cccnc34)cc2C1 [Example 429, (S)-N-(7-(4-(1H-imidazol-1-yl)piperidin-1-yl)-3-hydroxy-3-methylchroman-6-yl)pyrazolo[1,5-a]pyrimidine-3-carboxamide]",12
3,"CC(C)N1CCN(c2cc3c(cc2NC(=O)c2cnn4cccnc24)CC(C)(C)O3)CC1 [Example 508, N-(6-(4-isopropylpiperazin-1-yl)-2,2-dimethyl-2,3-dihydrobenzofuran-5-yl)pyrazolo[1,5-a]pyrimidine-3-carboxamide]",43
4,"CC1(C)Cc2cc(NC(=O)c3cnn4cccnc34)c(N3CCN(CCO)CC3)cc2O1 [Example 60, N-[6-[4-(2-Hydroxyethyl)piperazin-1-yl]-2,2-dimethyl-3H-benzofuran-5-yl]pyrazolo[1,5-a]pyrimidine-3-carboxamide]",6.6
5,"CC1(C)Cc2cc(NC(=O)c3cnn4cc(C5CNC5)cnc34)c(N3CCOCC3)cc2O1 [Example 490, 6-(Azetidin-3-yl)-N-(2,2-dimethyl-6-morpholino-3H-benzofuran-5-yl)pyrazolo[1,5-a]pyrimidine-3-carboxamide]",980
6,"CC(C)(O)[C@@]1(C)Cc2cc(NC(=O)c3cnn4cccnc34)c(O[C@H]3CC[C@@H](O)CC3)cc2O1 [Example 313, N-[(2R)-6-(cis-4-Hydroxycyclo-hexoxy)-2-(1-hydroxy-1-methyl-ethyl)-2-methyl-3H-benzofuran-5-yl]pyrazolo[1,5-a]pyrimidine-3-carboxamide]",490
7,"CC1(C)Cc2cc(NC(=O)c3cnn4cccnc34)c(N3CCOCC3)cc2O1 [Example 33, N-(2,2-dimethyl-6-morpholino-2,3-dihydrobenzofuran-5-yl)pyrazolo[1,5-a]pyrimidine-3-carboxamide]",5
8,"CC1(C)Cc2cc(NC(=O)c3cnn4cccnc34)c(N3CC(O)C(F)(F)C3)cc2O1 (stereo not shown) [Example 68, N-(6-(3,3-Difluoro-4-hydroxypyrrolidin-1-yl)-2,2-dimethyl-2,3-dihydrobenzofuran-5-yl)pyrazolo[1,5-a]pyrimidine-3-carboxamide]",9.8
9,"CC1(C)Cc2cc(NC(=O)c3cnn4cccnc34)c(N3CCN4CCC[C@@H]4C3)cc2O1 [Example 443, (R)-N-(6-(hexahydropyrrolo[1,2-a]pyrazin-2(1H)-yl)-2,2-dimethyl-2,3-dihydrobenzofuran-5-yl)pyrazolo[1,5-a]pyrimidine-3-carboxamide]",38
10,"CC1(C)Cc2cc(NC(=O)c3cnn4cccnc34)c(N3CCN(CCC(N)=O)CC3)cc2O1 [Example 455, N-(6-(4-(3-amino-3-oxopropyl)piperazin-1-yl)-2,2-dimethyl-2,3-dihydrobenzofuran-5-yl)pyrazolo[1,5-a]pyrimidine-3-carboxamide]",5.8
11,"CC1(C)Cc2cc(NC(=O)c3cnn4cccnc34)c(N3CCN(CC4CCC(=O)N4)CC3)cc2O1 (stereo not shown) [Example 468, N-(2,2-dimethyl-6-(4-((5-oxopyrrolidin-2-yl)methyl)piperazin-1-yl)-2,3-dihydrobenzofuran-5-yl)pyrazolo[1,5-a]pyrimidine-3-carboxamide]",5.1
12,"CC1(C)Cc2cc(NC(=O)c3cnn4cccnc34)c(N3Cc4cccnc4C3)cc2O1 [Example 189, N-[6-(5,7-dihydropyrrolo[3,4-b]pyridin-6-yl)-2,2-dimethyl-3H-benzofuran-5-yl]pyrazolo[1,5-a]pyrimidine-3-carboxamide]",5.5
13,"CC(C)(O)CCN1Cc2cc(NC(=O)c3cnn4cccnc34)c(N3CCN(CC(F)F)CC3)cc2C1=O [Example 279, N-[6-[4-(2,2-Difluoroethyl)piperazin-1-yl]-2-(3-hydroxy-3-methyl-butyl)-1-oxo-isoindolin-5-yl]pyrazolo[1,5-a]pyrimidine-3-carboxamide]",1.8
14,"CC1(C)Cc2cc(NC(=O)c3cnn4cccnc34)c(OC[C@H]3CCCN3)cc2O1 [Example 291, (R)—N-(2,2-Dimethyl-6-(pyrrolidin-2-ylmethoxy)-2,3-dihydrobenzofuran-5-yl)pyrazolo[1,5-a]pyrimidine-3-carboxamide]",380
15,"C[C@]1(C(F)(F)F)Cc2cc(NC(=O)c3cnn4cccnc34)c(N3CCOCC3)cc2O1 [Example 76, (R)—N-(2-Methyl-6-morpholino-2-(trifluoromethyl)-2,3-dihydrobenzofuran-5-yl)pyrazolo[1,5-a]pyrimidine-3-carboxamide]",25
